What all share (experiment): cAMP functional assay (HTRF) in HEK293 cells in presence of 0.1% casein
What all share (assay type): cell-based

Experiment [1] addresses T1, human glucagon receptor (GcgR) (Homo sapiens, UniProt P47871).
T1 construct: expressed in transfected cells; host or cells: HEK293
Particulars: HEK293 cells expressing human GcgR, geometric mean, read-out: hGcgR cAMP Rel EC50 nM (SEM, n).

For experiment [2], the target named is T2, human glucose-dependent insulinotropic peptide receptor (GIPR) (Homo sapiens, UniProt P48546).
T2 construct: expressed in transfected cells; host or cells: HEK293
T2 sequence (P48546 22-466): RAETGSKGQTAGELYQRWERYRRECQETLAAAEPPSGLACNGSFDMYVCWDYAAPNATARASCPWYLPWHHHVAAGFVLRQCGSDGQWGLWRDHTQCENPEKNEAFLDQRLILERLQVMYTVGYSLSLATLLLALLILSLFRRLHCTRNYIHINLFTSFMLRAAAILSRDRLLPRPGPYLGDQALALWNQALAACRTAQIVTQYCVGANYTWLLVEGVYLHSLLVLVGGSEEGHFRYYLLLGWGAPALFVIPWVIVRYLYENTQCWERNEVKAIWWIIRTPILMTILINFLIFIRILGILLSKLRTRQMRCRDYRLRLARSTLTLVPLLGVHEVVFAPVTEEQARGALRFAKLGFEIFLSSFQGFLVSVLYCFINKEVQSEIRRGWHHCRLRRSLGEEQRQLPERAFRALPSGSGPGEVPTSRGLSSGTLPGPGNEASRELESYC
To be noted: HEK293 cells expressing human GIPR, geometric mean, read-out: hGIPR cAMP Rel EC50 nM (SEM, n).

Experiment [3] has as its target T3, human GLP-1 receptor (GLP-1R) (Homo sapiens, UniProt P43220).
T3 construct: expressed in transfected cells; host or cells: HEK293
To be noted: HEK293 cells expressing human GLP-1R, geometric mean, read-out: hGLP1R cAMP Rel EC50 nM (SEM, n).

SMILES strings stand for the structures. *1 amine or outer side, *2 acyl side, *3 side chain or, on linkers, in order; H or OH if unused. Where a SMILES comes first, the peptide text is derived from it. Side-chain parts run from the residue outwards. [ ]: non-standard residue; d: D form. The star is where a group is joined. C20 diacid = O=C(O)CCCCCCCCCCCCCCCCCCC(=O)*; C18 diacid = O=C(O)CCCCCCCCCCCCCCCCC(=O)*; αMePhe(2-F) = C[C@](N)(Cc1ccccc1F)C(=O)O; γGlu = O=C(O)[C@H](CCC(=O)[*:2])N[*:1]; 4Pal = N[C@@H](Cc1ccncc1)C(=O)O; αMeL = CC(C)C[C@](C)(N)C(=O)O; Orn = NCCC[C@H](N)C(=O)O; AEEA = NCCOCCOCC(=O)O; Aib = CC(C)(N)C(=O)O Bounds are passed on as bounds.

T1 sequence (P47871 26-477): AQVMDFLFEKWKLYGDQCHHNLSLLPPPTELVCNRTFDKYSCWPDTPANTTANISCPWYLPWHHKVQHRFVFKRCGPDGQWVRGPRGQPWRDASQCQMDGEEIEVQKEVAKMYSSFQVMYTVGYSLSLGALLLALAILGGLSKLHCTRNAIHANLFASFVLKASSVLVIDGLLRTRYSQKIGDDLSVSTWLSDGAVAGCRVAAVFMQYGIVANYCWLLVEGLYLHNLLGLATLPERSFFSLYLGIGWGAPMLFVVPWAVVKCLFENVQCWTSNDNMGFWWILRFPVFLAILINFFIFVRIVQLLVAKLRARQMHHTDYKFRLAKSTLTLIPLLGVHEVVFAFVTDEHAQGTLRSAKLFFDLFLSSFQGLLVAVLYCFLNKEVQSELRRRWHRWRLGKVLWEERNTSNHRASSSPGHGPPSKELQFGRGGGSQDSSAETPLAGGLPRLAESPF
T3 sequence (P43220 24-463): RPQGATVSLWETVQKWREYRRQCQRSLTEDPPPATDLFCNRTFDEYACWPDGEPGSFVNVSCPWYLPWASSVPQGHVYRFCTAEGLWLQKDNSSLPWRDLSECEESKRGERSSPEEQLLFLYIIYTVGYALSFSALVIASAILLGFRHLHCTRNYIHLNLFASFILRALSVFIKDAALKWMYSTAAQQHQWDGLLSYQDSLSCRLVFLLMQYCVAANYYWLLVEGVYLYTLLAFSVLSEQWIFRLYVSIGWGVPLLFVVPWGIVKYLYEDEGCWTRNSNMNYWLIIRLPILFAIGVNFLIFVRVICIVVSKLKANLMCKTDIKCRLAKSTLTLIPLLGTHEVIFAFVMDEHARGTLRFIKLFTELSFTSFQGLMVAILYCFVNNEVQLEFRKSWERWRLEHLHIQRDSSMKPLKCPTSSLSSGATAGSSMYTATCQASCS

A word on the EC50: it is the midpoint of the concentration-response curve. Turning to `CC[C@H](C)[C@H](NC(=O)[C@H](CCCCN)NC(=O)[C@H](CC(=O)O)NC(=O)[C@H](CC(C)C)NC(=O)[C@](C)(CC(C)C)NC(=O)[C@@H](NC(=O)[C@H](CO)NC(=O)[C@H](Cc1ccc(O)cc1)NC(=O)[C@H](CC(=O)O)NC(=O)[C@H](CO)NC(=O)[C@@H](NC(=O)[C@H](Cc1ccccc1)NC(=O)[C@@H](NC(=O)CNC(=O)[C@H](CCC(=O)O)NC(=O)C(C)(C)NC(=O)[C@@H](N)Cc1ccc(O)cc1)[C@@H](C)O)[C@@H](C)CC)[C@@H](C)CC)C(=O)N[C@@H](Cc1c[nH]cn1)C(=O)N[C@@H](CCC(N)=O)C(=O)NC(C)(C)C(=O)N[C@@H](CC(=O)O)C(=O)N[C@@H](Cc1ccccc1)C(=O)N[C@H](C(=O)N[C@@H](CCC(=O)O)C(=O)N[C@@H](Cc1ccc(O)cc1)C(=O)N[C@@H](CCCCNC(=O)COCCOCCNC(=O)COCCOCCNC(=O)CC[C@H](NC(=O)CCCCCCCCCCCCCCCCCCC(=O)O)C(=O)O)C(=O)N[C@@H](CC(C)C)C(=O)N[C@@H](CCC(=O)O)C(=O)N[C@@H](CCC(N)=O)C(=O)NCC(=O)N1CCC[C@H]1C(=O)N[C@@H](CO)C(=O)N[C@@H](CO)C(=O)NCC(=O)N[C@@H](C)C(=O)N1CCC[C@H]1C(=O)N1CCC[C@H]1C(=O)N1CCC[C@H]1C(=O)N[C@@H](CO)C(N)=O)C(C)C` [Example 92] (H-Y[Aib]EGTFISDYSI[αMeL]LDKIHQ[Aib]DFVEYK([AEEA-AEEA-γGlu-C20 diacid])LEQGPSSGAPPPS-NH2), the EC50 in experiment [1] was above 5000 nM; in experiment [2], 0.0191 nM; in experiment [3] it was above 5000 nM.

In the case of `CC[C@H](C)[C@H](NC(=O)[C@H](Cc1ccccc1)NC(=O)[C@@H](NC(=O)CNC(=O)[C@H](CCC(=O)O)NC(=O)C(C)(C)NC(=O)[C@@H](N)Cc1ccc(O)cc1)[C@@H](C)O)C(=O)N[C@@H](CO)C(=O)N[C@@H](CC(=O)O)C(=O)N[C@@H](Cc1ccc(O)cc1)C(=O)N[C@@H](CO)C(=O)N[C@H](C(=O)N[C@@](C)(CC(C)C)C(=O)N[C@@H](CC(C)C)C(=O)N[C@@H](CC(=O)O)C(=O)N[C@@H](CCC(=O)O)C(=O)N[C@@H](CCCCNC(=O)COCCOCCNC(=O)COCCOCCNC(=O)CC[C@H](NC(=O)CCCCCCCCCCCCCCCCCCC(=O)O)C(=O)O)C(=O)N[C@@H](Cc1c[nH]cn1)C(=O)N[C@@H](CCC(N)=O)C(=O)NC(C)(C)C(=O)N[C@@H](CC(=O)O)C(=O)N[C@@H](Cc1ccccc1)C(=O)N[C@H](C(=O)N[C@@H](CCC(=O)O)C(=O)N[C@@H](Cc1ccncc1)C(=O)N[C@@H](CC(C)C)C(=O)N[C@@H](CC(C)C)C(=O)N[C@@H](C)C(=O)N[C@H](C(=O)NCC(=O)N1CCC[C@H]1C(=O)N[C@@H](CO)C(=O)N[C@@H](CO)C(=O)NCC(=O)N[C@@H](C)C(=O)N1CCC[C@H]1C(=O)N1CCC[C@H]1C(=O)N1CCC[C@H]1C(=O)N[C@@H](CO)C(N)=O)[C@@H](C)O)C(C)C)[C@@H](C)CC` [Example 83] (H-Y[Aib]EGTFISDYSI[αMeL]LDEK([AEEA-AEEA-γGlu-C20 diacid])HQ[Aib]DFVE[4Pal]LLATGPSSGAPPPS-NH2), the EC50 was above 5000 nM in experiment [1], 0.0432 nM in experiment [2] and above 5000 nM in experiment [3].

Regarding `CC[C@H](C)[C@H](NC(=O)[C@H](Cc1ccccc1)NC(=O)[C@@H](NC(=O)CNC(=O)[C@H](CCC(=O)O)NC(=O)C(C)(C)NC(=O)[C@@H](N)Cc1ccc(O)cc1)[C@@H](C)O)C(=O)N[C@@H](CO)C(=O)N[C@@H](CC(=O)O)C(=O)N[C@@H](Cc1ccc(O)cc1)C(=O)N[C@@H](CO)C(=O)N[C@H](C(=O)N[C@@](C)(CC(C)C)C(=O)N[C@@H](CC(C)C)C(=O)N[C@@H](CC(=O)O)C(=O)N[C@@H](CCCN)C(=O)N[C@@H](CCCCNC(=O)COCCOCCNC(=O)COCCOCCNC(=O)CC[C@H](NC(=O)CCCCCCCCCCCCCCCCC(=O)O)C(=O)O)C(=O)N[C@@H](Cc1c[nH]cn1)C(=O)N[C@@H](CCC(N)=O)C(=O)NC(C)(C)C(=O)N[C@@H](CC(=O)O)C(=O)N[C@@H](Cc1ccccc1)C(=O)N[C@H](C(=O)N[C@@H](CCC(=O)O)C(=O)N[C@@H](Cc1ccncc1)C(=O)N[C@@H](CC(C)C)C(=O)N[C@@H](CC(C)C)C(=O)N[C@@H](CCC(=O)O)C(=O)N[C@@H](C)C(=O)NCC(=O)N1CCC[C@H]1C(=O)N[C@@H](CO)C(=O)N[C@@H](CO)C(=O)NCC(=O)N[C@@H](C)C(=O)N1CCC[C@H]1C(=O)N1CCC[C@H]1C(=O)N1CCC[C@H]1C(=O)N[C@@H](CO)C(N)=O)C(C)C)[C@@H](C)CC` [Example 87] (H-Y[Aib]EGTFISDYSI[αMeL]LD[Orn]K([AEEA-AEEA-γGlu-C18 diacid])HQ[Aib]DFVE[4Pal]LLEAGPSSGAPPPS-NH2), the EC50 in experiment [1] was above 5000 nM; in experiment [2] it was 0.0107 nM; in experiment [3], above 5000 nM.

As for `CC[C@H](C)[C@H](NC(=O)[C@H](CO)NC(=O)[C@H](Cc1ccc(O)cc1)NC(=O)[C@H](CC(=O)O)NC(=O)[C@H](CO)NC(=O)[C@@H](NC(=O)[C@](C)(Cc1ccccc1F)NC(=O)[C@@H](NC(=O)CNC(=O)[C@H](CCC(=O)O)NC(=O)C(C)(C)NC(=O)[C@@H](N)Cc1ccc(O)cc1)[C@@H](C)O)[C@@H](C)CC)C(=O)N[C@@H](CC(C)C)C(=O)N[C@@H](CC(C)C)C(=O)N[C@@H](CC(=O)O)C(=O)N[C@@H](CCCCN)C(=O)N[C@H](C(=O)N[C@@H](Cc1c[nH]cn1)C(=O)N[C@@H](CCC(N)=O)C(=O)NC(C)(C)C(=O)N[C@@H](CC(=O)O)C(=O)N[C@@H](Cc1ccccc1)C(=O)N[C@H](C(=O)N[C@@H](CCC(=O)O)C(=O)N[C@@H](Cc1ccncc1)C(=O)N[C@@H](CCCCNC(=O)COCCOCCNC(=O)COCCOCCNC(=O)CC[C@H](NC(=O)CCCCCCCCCCCCCCCCCCC(=O)O)C(=O)O)C(=O)N[C@@H](CC(C)C)C(=O)N[C@@H](CCC(=O)O)C(=O)N[C@@H](C)C(=O)NCC(=O)N1CCC[C@H]1C(=O)N[C@@H](CO)C(=O)N[C@@H](CO)C(=O)NCC(=O)N[C@@H](C)C(=O)N1CCC[C@H]1C(=O)N1CCC[C@H]1C(=O)N1CCC[C@H]1C(=O)N[C@@H](CO)C(N)=O)C(C)C)[C@@H](C)CC` [Example 120] (H-Y[Aib]EGT[αMePhe(2-F)]ISDYSILLDKIHQ[Aib]DFVE[4Pal]K([AEEA-AEEA-γGlu-C20 diacid])LEAGPSSGAPPPS-NH2), the figures for the half-maximal effective concentration (EC50) in experiment [1], in experiment [2] and in experiment [3] were above 5000 nM, 0.0228 nM and above 5000 nM, respectively.

As for `CC[C@H](C)[C@H](NC(=O)[C@H](CO)NC(=O)[C@H](Cc1ccc(O)cc1)NC(=O)[C@H](CC(=O)O)NC(=O)[C@H](CO)NC(=O)[C@@H](NC(=O)[C@](C)(Cc1ccccc1F)NC(=O)[C@@H](NC(=O)CNC(=O)[C@H](CCC(=O)O)NC(=O)C(C)(C)NC(=O)[C@@H](N)Cc1ccc(O)cc1)[C@@H](C)O)[C@@H](C)CC)C(=O)N[C@@H](C)C(=O)N[C@@H](CC(C)C)C(=O)N[C@@H](CC(=O)O)C(=O)N[C@@H](CCCCN)C(=O)N[C@H](C(=O)N[C@@H](Cc1c[nH]cn1)C(=O)N[C@@H](CCC(N)=O)C(=O)NC(C)(C)C(=O)N[C@@H](CCC(=O)O)C(=O)N[C@@H](Cc1ccccc1)C(=O)N[C@H](C(=O)N[C@@H](CC(N)=O)C(=O)N[C@@H](Cc1ccc(O)cc1)C(=O)N[C@@H](CCCCNC(=O)COCCOCCNC(=O)COCCOCCNC(=O)CC[C@H](NC(=O)CCCCCCCCCCCCCCCCC(=O)O)C(=O)O)C(=O)N[C@@H](CC(C)C)C(=O)N[C@@H](C)C(=O)NCC(=O)NCC(=O)N1CCC[C@H]1C(=O)N[C@@H](CO)C(=O)N[C@@H](CO)C(=O)NCC(=O)N[C@@H](C)C(=O)N1CCC[C@H]1C(=O)N1CCC[C@H]1C(=O)N1CCC[C@H]1C(=O)N[C@@H](CO)C(N)=O)C(C)C)[C@@H](C)CC` [Example 94] (H-Y[Aib]EGT[αMePhe(2-F)]ISDYSIALDKIHQ[Aib]EFVNYK([AEEA-AEEA-γGlu-C18 diacid])LAGGPSSGAPPPS-NH2), the EC50 was above 5000 nM in experiment [1], 0.00436 nM in experiment [2] and 1090 nM in experiment [3].

In the case of `CC[C@H](C)[C@H](NC(=O)[C@H](CCCCN)NC(=O)[C@H](CC(=O)O)NC(=O)[C@H](CC(C)C)NC(=O)[C@](C)(CC(C)C)NC(=O)[C@@H](NC(=O)[C@H](CO)NC(=O)[C@H](Cc1ccc(O)cc1)NC(=O)[C@H](CC(=O)O)NC(=O)[C@H](CO)NC(=O)[C@@H](NC(=O)[C@H](Cc1ccccc1)NC(=O)[C@@H](NC(=O)CNC(=O)[C@H](CCC(=O)O)NC(=O)C(C)(C)NC(=O)[C@@H](N)Cc1ccc(O)cc1)[C@@H](C)O)[C@@H](C)CC)[C@@H](C)CC)C(=O)N[C@@H](Cc1c[nH]cn1)C(=O)N[C@@H](CCC(N)=O)C(=O)NC(C)(C)C(=O)N[C@@H](CC(=O)O)C(=O)N[C@@H](Cc1ccccc1)C(=O)N[C@H](C(=O)N[C@@H](CCC(=O)O)C(=O)N[C@@H](Cc1ccncc1)C(=O)N[C@@H](CCCCNC(=O)COCCOCCNC(=O)COCCOCCNC(=O)CC[C@H](NC(=O)CCCCCCCCCCCCCCCCCCC(=O)O)C(=O)O)C(=O)N[C@@H](CC(C)C)C(=O)N[C@@H](CCC(=O)O)C(=O)NCC(=O)NCC(=O)N1CCC[C@H]1C(=O)N[C@@H](CO)C(=O)N[C@@H](CO)C(=O)NCC(=O)N[C@@H](C)C(=O)N1CCC[C@H]1C(=O)N1CCC[C@H]1C(=O)N1CCC[C@H]1C(=O)N[C@@H](CO)C(N)=O)C(C)C` [Example 109] (H-Y[Aib]EGTFISDYSI[αMeL]LDKIHQ[Aib]DFVE[4Pal]K([AEEA-AEEA-γGlu-C20 diacid])LEGGPSSGAPPPS-NH2), the figures for the EC50 in experiment [1], in experiment [2] and in experiment [3] were above 5000 nM, 0.0113 nM and above 5000 nM, respectively.
